In patent US12024490B2, “Polymeric metal chelating compositions and methods of preparing same for controlling growth and activities of living cells and organisms for therapeutic use in treating diseases in animals, fish or humans” (CHELATION PARTNERS INCORPORATED, priority 2016, dated 2024):
Converted amounts (≈) assume the structure as drawn.

Tested on: Staphylococcus aureus
Assay: Growth inhibition (MIC) in RPMI 1640, Staphylococcus aureus
Assay type: cell-based
Conditions: method of Example 6, read-out: MIC for S. aureus
Method: Chelating compositions were assessed for their biological activity in vitro by determination of their growth inhibitory activity for Staphylococcus aureus (strain 038, a clinical isolate from a corneal infection obtained from Dr. Mark Wilcox, University New South Wales, Australia or strain ATCC 43300, a prototypical clinical isolate and reference strain obtained from the American Type Culture Collection) and Candida albicans (SC5314, a prototypical clinical isolate and reference strain obtained from the American Type Culture Collection or strain 3969 a clinical isolate obtained from the Queen Elizabeth II hospital, Halifax, Canada). The microorganisms were grown in RPMI 1640 culture medium and tested in fresh aliquots of RPMI 1640 medium or in medium that had been partially deferrated by the method of Holbein and Mira (Holbein B. E, Mira de Orduña R. 2010, FEMS Microbiol Lett. 307(1):19-24, herein incorporated by reference) to allow testing at low Fe levels or with iron re-added at known concentrations to this deferrated medium. Growth at 30° C. was measured by optical density when the test samples were incubated in tubes or visually when growth was tested in microtitre dish wells. […]

C=C(C)C(=O)NCCn1ccc(=O)c(O)c1C [MAHMP, 3-hydroxy-1-(β-methacrylamidoethyl)-2-methyl-4(1H)-pyridinone]
MIC: 125 µg/mL (≈ 529 µM)
